The text below walks through data of publication PMC7126999 (Bioorganic & Medicinal Chemistry, 2015).

The term CC50 denotes the concentration giving 50% cytotoxicity. The EC50 is the concentration at which the effect is half-maximal. What is called IC50 is the concentration needed to halve the response being measured.

Several values for one entry are separate records, joined by “and”; a condition that tells them apart may be missing. Equal entries are not always repeated. Where two headings read alike, the source gives them in different places.

A short description of series [1]: Cell viability of CrFK cells, formazan-based MTS assay. The following applies: cat, CrFK cells. Set-up: species or system feline.
For the next series, the system named is HEL cells. The experiment in a line: Cytotoxicity, cell morphology. The following applies: exp. 1 and exp. 2. Format: cell-based, human.
Another series has as its system Vaccinia virus. The experiment in a line: microbe, parasite or virus in culture. Format: cell-based. The note with it: for EC50: Orthopoxvirus vaccinia, HEL, read-out: EC50 Vaccinia virus.
Another series has as its system murine leukemia L1210. The experiment in a line: Inhibition of proliferation of murine leukemia L1210 cells. Format: cell-based. The following applies: read-out: IC50 L1210; inhibit tumor cell proliferation by 50%.
In a further series the test system is human lymphocyte CEM. The experiment in a line: Inhibition of proliferation of human T-lymphocyte CEM cells. Format: cell-based. The note with it: for IC50: read-out: IC50 CEM; for cytostatic activity against CEM relative to 5-fluorouracil: fold more active than 5-fluorouracil.
The test system of another series is MDCK cells. The experiment in a line: Cell viability of MDCK cells, formazan-based MTS assay. The following applies: read-out: CC50 MDCK; cell viability, colorimetric formazan-based MTS assay. On the set-up: species or system canine. Background: Tetrazolium assays rely on reduction of a dye to a coloured formazan, in cell work by metabolically active cells.
For series [2], the system named is human cervix carcinoma HeLa cells. The experiment in a line: Inhibition of proliferation of human cervix carcinoma HeLa cells. It counts as cell-based. The note with it: read-out: IC50 HeLa.
The next series relates to CrFK cells. The experiment in a line: Cell viability of CrFK cells, formazan-based MTS assay. Set-up: species or system feline. The note with it: read-out: CC50 CrFK; cell viability, colorimetric formazan-based MTS assay.
Series [3] concerns three strains of herpes simplex virus. It counts as cell-based. The note with it: HEL, read-out: EC50 against three strains of herpes simplex virus.
For series [4], the system named is L1210, CEM and HeLa cell lines. The experiment in a line: Cytostatic activity on L1210, CEM and HeLa cell lines. It counts as cell-based, murine; human. The note with it: fold more cytostatic than cis-9d / cis-9f.
The subject of another series is HSV and Vaccinia viruses. The experiment in a line: microbe, parasite or virus in culture. It counts as cell-based, herpes simplex virus; vaccinia virus. The note with it: Orthopoxvirus vaccinia, read-out: EC50 against HSV and Vaccinia viruses.
Another series concerns cytomegalovirus. The series can be described thus: Antiviral activity against cytomegalovirus in HEL cells. The note with it: read-out: EC50 toward cytomegalovirus, strain not specified. It counts as cell-based, human cytomegalovirus (HCMV).
For a further series, the system named is Coxsackie virus B4. Format: cell-based. The following applies: Vero cell cultures; DS-10.000 in μg/ml.
A short description of series [5]: Cell viability of MDCK cells, formazan-based MTS assay. Set-up: species or system canine. The following applies: dog, MDCK cells.
Setting [6] is: Table 3 (cytomegalovirus assays).
The mark [7] stands for this setting: inhibit tumor cell proliferation by 50%.

In turn, `CCOP(=O)(OCC)[C@@H]1C[C@@H](C(=O)Nc2cc3c4c(cccc4c2)C(=O)N(CC(C)C)C3=O)ON1C` [trans-9c, Diethyl trans-5-(N-isobutylnaphthalimide-3-ylcarbamoyl)-2-methylisoxazolidin-3-yl-3-phosphonate] came in with a half-maximal cytotoxic concentration (CC50) in series [1] above 100 µM. Also, the “Cytotoxicity Cell morphology MCC” value in the series with HEL cells (setting [6]) and in the series with HEL cells (Table 4 (VZV assays)) was above 100 μM each time.
With `O=c1[nH]c(=O)n([C@H]2C[C@H](O)[C@@H](CO)O2)cc1/C=C/Br` [Brivudin, brivudin, reference compound], the EC50 in the series with Vaccinia virus is 17 to 22 µM. Further, in the series with HEL cells (Table 4 (VZV assays)), the “Cytotoxicity Cell morphology MCC” value is recorded as above 300 μM.
With `CCOP(=O)(OCC)[C@@H]1C[C@H](C(=O)Nc2cc3c4c(cccc4c2)C(=O)N(CCN2CCCC2)C3=O)ON1C` (racemic) [cis-9f, Diethyl cis-5-[N-(2-pirolidyn-1-yl)ethylnaphthalimide-3-ylcarbamoyl]-2-methylisoxazolidin-3-yl-3-phosphonate], the EC50 with Vaccinia virus was in the range of 45 to 100 µM. The “Cytotoxicity Cell morphology MCC” value is above 100 μM with HEL cells (setting [6]); 100 μM and >100 μM with HEL cells (Table 4 (VZV assays)).
For `CCOP(=O)(OCC)[C@H]1C[C@H](CN2C(=O)c3cccc4cc(NC(C)=O)cc(c34)C2=O)ON1C` (relative stereo) [trans-10d/cis-10d (93:7), Diethyl trans-5-(5-acetamido-1,3-dioxo-2,3-dihydro-1H-benzo[de]izochinolin-2-ylmethyl)-2-methylisoxazolidin-3-yl-3-phosphonate], the IC50 in the series on murine leukemia L1210 turned out to be 136 ± 14 µM; in the series on human lymphocyte CEM (setting [7]) it was 125 ± 4 µM; in series [2] (setting [7]), 111 ± 3 µM. Also, the CC50 with MDCK cells and in the series on CrFK cells was above 100 µM in each case.
As for `CCOP(=O)(OCC)[C@@H]1C[C@@H](C(=O)Nc2cc3c4c(cccc4c2)C(=O)N(CCN2CCCC2)C3=O)ON1C` (racemic) [trans-9f, Diethyl trans-5-[N-(2-pirolidyn-1-yl)ethylnaphthalimide-3-ylcarbamoyl]-2-methylisoxazolidin-3-yl-3-phosphonate], the concentration giving a half-maximal response (EC50) in [3] lay in the range of 45 to 100 µM; in the series with HSV and Vaccinia viruses it was 45 to 58 µM; in the series with cytomegalovirus, 8.9 to 20 µM. In the series with human lymphocyte CEM, the “cytostatic activity against CEM relative to 5-fluorouracil” value is “five-fold”. For the same compound, in series [4], the “cytostatic activity of trans-isomer relative to corresponding cis-isomer” value is “two-fold”. Besides, the “Cytotoxicity Cell morphology MCC” value with HEL cells (setting [6]) and in the series with HEL cells (Table 4 (VZV assays)) was 100 μM each time.
Consider `CCOP(=O)(OCC)[C@@H]1C[C@H](C(=O)Nc2cc3c4c(cccc4c2)C(=O)N(CCN(C)C)C3=O)ON1C` (racemic) [cis-9d, Diethyl cis-5-[N-(2-dimethylamino)ethylnaphthalimide-3-ylcarbamoyl]-2-methylisoxazolidin-3-yl-3-phosphonate], for which the EC50 in series [3] lay in the range of 45 to 100 µM; in the series on HSV and Vaccinia viruses it was 45 to 58 µM. Further, the “Cytotoxicity Cell morphology MCC” value is given as above 100 μM in the series with HEL cells (setting [6]) and 100 μM in the series with HEL cells (Table 4 (VZV assays)).
As to dextran sulfate [DS-10.000], the “EC50 Coxsackie virus B4” value with Coxsackie virus B4 was above 100 µg/mL.
For `CCOP(=O)(OCC)[C@@H]1C[C@H](C(=O)Nc2cc3c4c(cccc4c2)C(=O)N(CC(C)C)C3=O)ON1C` (racemic) [cis-9c, Diethyl cis-5-(N-isobutylnaphthalimide-3-ylcarbamoyl)-2-methylisoxazolidin-3-yl-3-phosphonate], the “Cytotoxicity Cell morphology MCC” value in the series with HEL cells (setting [6]) and in the series on HEL cells (Table 4 (VZV assays)) was above 100 μM each time.
Consider `Nc1nc2c(ncn2COC(CO)CO)c(=O)[nH]1` [Ganciclovir, ganciclovir, reference compound], for which the “activity against vaccinia virus, in words” value in the series on Vaccinia virus is “inactive”. Further, the “Cytotoxicity Cell morphology MCC” value with HEL cells (setting [6]) is above 350 μM.
`CCCN1C(=O)c2cccc3cc(NC(=O)[C@@H]4C[C@@H](P(=O)(OCC)OCC)N(C)O4)cc(c23)C1=O` (racemic) [trans-9a, Diethyl trans-5-(N-propylnaphtalimide-3-ylcarbamoyl)-2-methylisoxazolidin-3-yl-3-phosphonate]: the CC50 in series [1] is above 100 µM. Also, the “Cytotoxicity Cell morphology MCC” value with HEL cells (setting [6]) and in the series on HEL cells (Table 4 (VZV assays)) was above 100 μM in each case.
As to `CCOP(=O)(OCC)[C@H]1C[C@H](CN2C(=O)c3cccc4cc(N)cc(c34)C2=O)ON1C` (relative stereo) [trans-10c/cis-10c (93:7), Diethyl trans-5-(5-amino-1,3-dioxo-2,3-dihydro-1H-benzo[de]izochinolin-2-ylmethyl)-2-methylisoxazolidin-3-yl-3-phosphonate], the 50% inhibitory concentration (IC50) turned out to be 95 ± 42 µM with murine leukemia L1210, 99 ± 2 µM with human lymphocyte CEM (setting [7]) and 101 ± 58 µM in series [2] (setting [7]). For the same compound, the half-maximal cytotoxic concentration (CC50) in the series on MDCK cells and in the series on CrFK cells was above 100 µM each time.
Turning to `CCCN1C(=O)c2cccc3cc(NC(=O)[C@H]4C[C@@H](P(=O)(OCC)OCC)N(C)O4)cc(c23)C1=O` (racemic) [cis-9a, Diethyl cis-5-(N-propylnaphthalimide-3-ylcarbamoyl)-2-methylisoxazolidin-3-yl-3-phosphonate], the “Cytotoxicity Cell morphology MCC” value in the series with HEL cells (setting [6]) and in the series with HEL cells (Table 4 (VZV assays)) was above 100 μM each time.
For `CCOP(=O)(OCC)[C@@H]1C[C@@H](C(=O)Nc2cc3c4c(cccc4c2)C(=O)N(CCN(C)C)C3=O)ON1C` (racemic) [trans-9d, Diethyl trans-5-[N-(2-dimethylamino)ethylnaphthalimide-3-ylcarbamoyl]-2-methylisoxazolidin-3-yl-3-phosphonate], the half-maximal effective concentration (EC50) in series [3] fell in the range of 45 to 100 µM; in the series on HSV and Vaccinia viruses, 45 to 58 µM. In addition, the “cytostatic activity against CEM relative to 5-fluorouracil” value in the series with human lymphocyte CEM is “five-fold”. Besides, the “cytostatic activity of trans-isomer relative to corresponding cis-isomer” value in series [4] is reported as “two-fold”. The “Cytotoxicity Cell morphology MCC” value is reported as 100 μM in the series with HEL cells (setting [6]) and above 100 μM in the series on HEL cells (Table 4 (VZV assays)).
With `O=c1[nH]cc(F)c(=O)[nH]1` [5-Fluorouracil, reference compound], the 50% inhibitory concentration (IC50) with human lymphocyte CEM (Homo sapiens, Lymphocyte) turned out to be 18 ± 5 µM; in [2] (Homo sapiens, HeLa), 0.54 ± 0.12 µM.
As to `CCOP(=O)(OCC)[C@@H]1C[C@H](C(=O)Nc2cc3c4c(cccc4c2)C(=O)N(CCN(CC)CC)C3=O)ON1C` (racemic) [cis-9e, Diethyl cis-5-[N-(2-diethylamino)ethylnaphthalimide-3-ylcarbamoyl]-2-methylisoxazolidin-3-yl-3-phosphonate], the cytotoxic concentration (CC50) in series [5] is above 100 µM.
In the case of `Nc1nc2c(ncn2COCCO)c(=O)[nH]1` [Acyclovir, acyclovir], in the series on Vaccinia virus, the “activity against vaccinia virus, in words” value is “inactive”.
Take `CCOP(=O)(OCC)[C@H]1C[C@H](CN2C(=O)c3cccc4cccc(c34)C2=O)ON1C` (relative stereo) [trans-10a/cis-10a (93:7), Diethyl trans-5-(1,3-dioxo-2,3-dihydro-1H-benzo[de]izochinolin-2-ylmethyl)-2-methylisoxazolidin-3-yl-3-phosphonate]: the IC50 worked out at 180 ± 47 µM with murine leukemia L1210, 111 ± 14 µM with human lymphocyte CEM (setting [7]) and 77 ± 20 µM in series [2] (setting [7]). The CC50 with MDCK cells and in the series with CrFK cells was above 100 µM throughout.
With `CCCCN1C(=O)c2cccc3cc(NC(=O)[C@@H]4C[C@@H](P(=O)(OCC)OCC)N(C)O4)cc(c23)C1=O` (racemic) [trans-9b, Diethyl trans-5-(N-butylnaphthalimide-3-ylcarbamoyl)-2-methylisoxazolidin-3-yl-3-phosphonate], the results for the “Cytotoxicity Cell morphology MCC” value in the series with HEL cells (setting [6]) and in the series on HEL cells (Table 4 (VZV assays)) were 100 μM and above 100 μM, respectively.
As to `CCOP(=O)(OCC)[C@H]1C[C@H](CN2C(=O)c3cccc4cc([N+](=O)[O-])cc(c34)C2=O)ON1C` (relative stereo) [trans-10b/cis-10b (94:6), Diethyl trans-5-(5-nitro-1,3-dioxo-2,3-dihydro-1H-benzo[de]izochinolin-2-ylmethyl)-2-methylisoxazolidin-3-yl-3-phosphonate], the half-maximal inhibitory concentration (IC50) in the series with murine leukemia L1210 came out at 34 ± 6 µM; with human lymphocyte CEM (setting [7]), 51 ± 6 µM; in series [2] (setting [7]), 20 ± 3 µM. Also, the 50% cytotoxic concentration (CC50) in the series with MDCK cells and with CrFK cells was above 100 µM throughout.
In [1], `CCOP(=O)(OCC)[C@@H]1C[C@@H](C(=O)Nc2cc3c4c(cccc4c2)C(=O)N(CCN(CC)CC)C3=O)ON1C` (racemic) [trans-9e, Diethyl trans-5-[N-(2-diethylamino)ethylnaphthalimide-3-ylcarbamoyl]-2-methylisoxazolidin-3-yl-3-phosphonate] gave a 50% cytotoxic concentration (CC50) above 100 µM.
For the compound `Nc1ccn(C[C@@H](CO)OCP(=O)(O)O)c(=O)n1.O.O` [Cidofovir, cidofovir, reference compound], the “Cytotoxicity Cell morphology MCC” value in the series with HEL cells (setting [6]) is listed as above 350 μM.
Consider `CCCCN1C(=O)c2cccc3cc(NC(=O)[C@H]4C[C@@H](P(=O)(OCC)OCC)N(C)O4)cc(c23)C1=O` (racemic) [cis-9b, Diethyl cis-5-(N-butylnaphthalimide-3-ylcarbamoyl)-2-methylisoxazolidin-3-yl-3-phosphonate], for which the CC50 in [5] and in series [1] was above 100 µM throughout. The half-inhibitory concentration (IC50) in series [2] (Homo sapiens, HeLa) turned out to be 25 ± 3 µM. In addition, the “Cytotoxicity Cell morphology MCC” value with HEL cells (setting [6]) is 100 μM; in the series with HEL cells (Table 4 (VZV assays)) it was above 100 μM.
